Reference: paper PMC3885398, “Evaluation of the Antitumor Effects of BPR1J-340, a Potent and Selective FLT3 Inhibitor, Alone or in Combination with an HDAC Inhibitor, Vorinostat, in AML Cancer” (PLoS ONE, 2014)
“Also recorded” adds a separate entry of the source.

Tests used:
FLT1 (VEGFR1) = biological target: T1, FLT1 (VEGFR1) (Homo sapiens, UniProt P17948); assay: VEGFR1 Kinase-Glo kinase assay; format: biochemical
T1 construct: VEGFR1 (residues R781-I1338); made in house
Method: (§1) The FLT3 inhibitors, BPR1J-340 and AC220, were synthesized by our laboratory. The histone deacetylase inhibitor vorinostat (SAHA) was purchased from SelleckBio (Houston, TX, USA). All inhibitors were dissolved in dimethylsulfoxide (DMSO) at a stock concentration of 10 mM. The anti-FLT3 (sc-480, Santa Cruz Biotechnology, Santa Cruz, CA, USA), anti-pFLT3-Tyr591 (#3461, Cell Signaling Technology, Beverly, MA, USA) anti-STAT5 (#9363, Cell Signaling Technology), anti-pSTAT5–Tyr694 (#9351, Cell Signaling Technology), anti-cleaved poly ADP-ribose polymerase (PARP) (#9542, Cell Signaling Technology), anti-Mcl-1 (#4572, Cell Signaling Technology), anti-caspase 3 (#9662, Cell Signaling Technology) and anti-β-actin (Gtx110546, GeneTex, Irvine, CA, USA) antibodies were purchased for Western blotting analysis. The preparation of recombinant proteins, FLT3 (residues Y567-S993), VEGFR1 (residues R781-I1338) and VEGFR2 (residues V789-V1356), for biochemical kinase assay was described previously. The VEGFR3 (residues M800-Y1363) proteins were purchased from Upstate (Billerica, MA, USA).
(§2) The FLT3 and VEGFR1/2 Kinase-Glo kinase assays were performed as reported by our earlier study. […] The kinase inhibition profiling and inhibitory activity of FLT3-D835Y, CSF1R, and TRKA were determined by Invitrogen SelectScreen® kinase profiling service (Carlsbad, California, USA).

FLT4 (VEGFR3) = FLT4 (VEGFR3) (Homo sapiens, UniProt P35916); assay: VEGFR3 Kinase-Glo kinase assay; format: biochemical; design: VEGFR3 (residues M800-Y1363); purchased Upstate (Billerica, MA, USA)
Method: as §1, §2

FLT3-ITD [1] = biological target: FLT3-ITD (Homo sapiens, UniProt P36888, ITD); assay: FLT3 phosphorylation in transfected HEK293T cells, Western blot; format: cell-based; conditions: HEK293T cells expressing FLT3-ITD, 1 hr, FLT3 ligand 50 ng/mL 5 min
Method: (§3) Cells were lysed in lysis buffer (50 mM Tris, pH 8.0, 150 mM NaCl, 1% Triton X-100, 0.5% sodium deoxycholate, 0.1% SDS, 1 mM sodium orthovanadate, 1 mM PMSF, and 1 mM DTT). Protein lysates were resolved by SDS-PAGE and transferred onto a polyvinylidene difluoride (PVDF) membrane (Millipore, Bedford, MA, USA). The membranes were immunoblotted with appropriate antibodies and detected using the SuperSignal reagent (Pierce, Rockford, IL, USA) followed by exposure to X-ray film.
(§4) To address whether BPR1J-340 was able to inhibit the FLT3 signaling pathway in FLT3-driven cells, MV4;11 cells were treated with different concentrations of BPR1J-340 for 1 hour, and the phosphorylation status of FLT3 and STAT5 (Signal Transducer and Activator of Transcription 5), a critical down-stream modulator that plays a major role in FLT3-ITD signal transduction for cell expansion and survival, was examined by Western blot analysis. […] To investigate the difference in sensitivity between FLT3-WT and the activating mutants FLT3-ITD and FLT3-D835Y to BPR1J-340, HEK293T cells engineered to express FLT3-WT or mutants FLT3 (FLT3-ITD, FLT3-D835Y) were analyzed. […]
(§5) Figure 2 BPR1J-340 inhibits FLT3-dependent signaling. […] The phosphorylation status of FLT3 and STAT5 were evaluated by Western blot analysis. […] The FLT3 phosphorylation status in the transfected cells was evaluated by Western blot analysis.

FLT3-WT = biological target: T2, FLT3-WT (Homo sapiens, UniProt P36888); assay: as above; format: cell-based; conditions: HEK293T cells expressing FLT3-WT, 1 hr, FLT3 ligand 50 ng/mL 5 min
T2 construct: expressed in transfected cells; host or cells: HEK293T
Method: as §3, §4, §5

MOLM-13 tumor xenograft = assay: Subcutaneous MOLM-13 tumor xenograft in nude mice; format: in vivo
Method: Male nude mice (Nu-Fox1nu) of eight weeks old were purchased from BioLasco (Ilan, Taiwan). The nude mice (n = 5∼7 per group) were inoculated subcutaneously with MOLM-13 (1×10^6 cells/flank). All human cancer cells were determined to be free of Mycoplasma spp before the inoculation. When tumors size reached 100∼200 mm^3 and a large size of >500 mm^3, the animals were grouped and treated with the BPR1J-340 (5 and 20 mg/kg, i.v.) or vehicle as control once daily for 5 days per week for two or three weeks. Tumor sizes were measured and calculated with the formula of length×width^2/2 after the initiation of the treatments. Tumor size and animal body weight were measured twice a week after the tumor cell inoculation. At the end of the study, animals were euthanized by carbon dioxide inhalation followed by cervical dislocation. The significant difference between the treated and vehicle control were analyzed by using one-way ANOVA and Student-Newman-Keuls test. The level of a statistical significance was set at p<0.05.

Aurora B kinase = Aurora B kinase (Homo sapiens, UniProt Q96GD4); assay: Aurora B kinase inhibition; format: biochemical
Method: BPR1J-340, a urea-substituted 3-phenyl-1H-5-pyrazolylamine-based compound, was designed through chemical modification of sulfonamide series of derivatives (BPR1J-097 series) by a structure-activity relationship (SAR) study (Fig. 1), [32]. For kinase inhibition specificity screening, BPR1J-340 was tested against 59 protein kinases covering the major oncogenic kinases of human protein kinome. […] In addition, BPR1J-340 inhibited TRKA, which is associated with the growth and metastasis of breast cancers, with an IC50 value of 8 nM. Given the high similarity of the ATP binding pockets of FLT3 and the Aurora kinases, the inhibitory activity toward Aurora A and Aurora B were measured. […] Taken together, BPRJ-340 is a selective kinase inhibitor with in vitro activity against FLT3, VEGFR2, VEGFR3 and TRKA receptor tyrosine kinases.

FLT3-ITD [2] = biological target: FLT3-ITD (Homo sapiens, UniProt P36888); assay: FLT3 phosphorylation in MV4;11 cells, Western blot; format: cell-based; conditions: 1 hour
Method: as §3, §4, §5

FLT3-ITD (Homo sapiens, UniProt P36888, ITD), sequence (P36888 27-993, change not shown): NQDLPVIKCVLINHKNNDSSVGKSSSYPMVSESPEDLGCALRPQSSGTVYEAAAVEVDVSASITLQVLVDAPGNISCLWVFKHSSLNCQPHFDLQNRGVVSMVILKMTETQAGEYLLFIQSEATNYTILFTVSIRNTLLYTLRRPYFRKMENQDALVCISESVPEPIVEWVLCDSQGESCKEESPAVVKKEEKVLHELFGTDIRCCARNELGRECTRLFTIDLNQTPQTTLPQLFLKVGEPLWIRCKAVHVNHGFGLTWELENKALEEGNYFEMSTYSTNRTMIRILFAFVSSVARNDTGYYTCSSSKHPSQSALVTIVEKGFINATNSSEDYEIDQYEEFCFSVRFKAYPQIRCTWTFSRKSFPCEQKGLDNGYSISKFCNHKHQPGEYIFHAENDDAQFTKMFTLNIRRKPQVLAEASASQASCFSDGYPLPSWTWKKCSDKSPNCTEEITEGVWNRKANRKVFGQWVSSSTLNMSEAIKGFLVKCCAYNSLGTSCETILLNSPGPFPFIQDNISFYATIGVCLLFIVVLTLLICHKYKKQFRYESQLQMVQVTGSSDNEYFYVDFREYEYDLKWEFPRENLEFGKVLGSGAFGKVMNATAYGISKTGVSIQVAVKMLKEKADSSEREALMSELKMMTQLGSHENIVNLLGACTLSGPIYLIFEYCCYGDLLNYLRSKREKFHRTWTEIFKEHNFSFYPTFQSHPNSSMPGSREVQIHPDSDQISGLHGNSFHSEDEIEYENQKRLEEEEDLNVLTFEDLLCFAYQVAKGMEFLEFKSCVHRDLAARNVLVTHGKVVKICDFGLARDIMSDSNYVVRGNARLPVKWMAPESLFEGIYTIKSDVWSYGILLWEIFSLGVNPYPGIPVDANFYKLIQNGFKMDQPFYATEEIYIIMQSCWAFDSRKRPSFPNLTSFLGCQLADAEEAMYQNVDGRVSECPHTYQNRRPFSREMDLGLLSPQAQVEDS
T2 sequence (P36888 27-993): as the sequence (P36888 27-993, change not shown) above
FLT3-ITD (Homo sapiens, UniProt P36888), sequence (P36888 27-993, change not shown): as above
Aurora B kinase, sequence (Q96GD4 whole entry): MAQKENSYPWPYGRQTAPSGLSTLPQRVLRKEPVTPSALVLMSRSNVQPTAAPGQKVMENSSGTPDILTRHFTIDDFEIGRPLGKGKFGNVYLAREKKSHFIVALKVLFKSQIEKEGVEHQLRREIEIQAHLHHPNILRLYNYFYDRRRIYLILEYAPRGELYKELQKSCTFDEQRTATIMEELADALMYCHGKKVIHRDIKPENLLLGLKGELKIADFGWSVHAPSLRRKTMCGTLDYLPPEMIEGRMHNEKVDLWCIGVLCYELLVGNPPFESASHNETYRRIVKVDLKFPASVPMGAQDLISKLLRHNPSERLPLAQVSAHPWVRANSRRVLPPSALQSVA
T1 sequence (P17948 781-1338): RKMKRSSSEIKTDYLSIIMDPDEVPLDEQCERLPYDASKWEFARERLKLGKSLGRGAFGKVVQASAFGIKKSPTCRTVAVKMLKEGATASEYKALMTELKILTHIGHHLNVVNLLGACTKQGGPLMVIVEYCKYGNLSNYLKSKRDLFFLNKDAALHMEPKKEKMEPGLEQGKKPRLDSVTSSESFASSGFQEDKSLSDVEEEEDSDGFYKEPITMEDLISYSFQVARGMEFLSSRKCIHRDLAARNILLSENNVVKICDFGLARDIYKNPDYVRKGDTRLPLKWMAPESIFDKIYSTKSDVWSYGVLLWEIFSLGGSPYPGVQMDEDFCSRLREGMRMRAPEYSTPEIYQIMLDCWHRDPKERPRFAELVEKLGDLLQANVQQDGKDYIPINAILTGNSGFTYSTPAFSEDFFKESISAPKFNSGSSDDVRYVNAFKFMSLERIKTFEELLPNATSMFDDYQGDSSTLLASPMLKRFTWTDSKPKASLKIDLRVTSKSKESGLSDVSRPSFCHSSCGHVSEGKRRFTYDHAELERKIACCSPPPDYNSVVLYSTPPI
FLT4 (VEGFR3), sequence (P35916 800-1363): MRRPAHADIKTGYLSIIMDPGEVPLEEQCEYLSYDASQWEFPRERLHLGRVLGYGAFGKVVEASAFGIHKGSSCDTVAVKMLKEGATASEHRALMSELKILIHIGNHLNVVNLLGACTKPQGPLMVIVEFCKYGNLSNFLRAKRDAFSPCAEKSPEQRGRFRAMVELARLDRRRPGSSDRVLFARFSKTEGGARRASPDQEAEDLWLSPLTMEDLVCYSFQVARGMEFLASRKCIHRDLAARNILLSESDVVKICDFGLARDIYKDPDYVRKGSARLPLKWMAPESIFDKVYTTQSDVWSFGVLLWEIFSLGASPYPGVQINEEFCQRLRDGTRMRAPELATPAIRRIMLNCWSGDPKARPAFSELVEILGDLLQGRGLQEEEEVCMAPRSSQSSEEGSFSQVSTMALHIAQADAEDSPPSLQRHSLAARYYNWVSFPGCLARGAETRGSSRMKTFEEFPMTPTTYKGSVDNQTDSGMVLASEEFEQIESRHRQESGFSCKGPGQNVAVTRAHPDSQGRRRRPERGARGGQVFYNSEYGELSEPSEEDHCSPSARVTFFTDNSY

CCc1cc(NC(=O)NCc2ccc(-c3cc(NC(=O)c4ccc(CN5CCN(C)CC5)cc4)[nH]n3)cc2)no1 [BPR1J-340, N1-(3-4-[([(5-ethyl-3-isoxazolyl)amino]carbonylamino)methyl]phenyl-1H-5-pyrazolyl)-4-[(4-methylpiperazino)methyl]benzamide] showed an IC50 (FLT1 (VEGFR1)) of 164 ± 24 nM, an IC50 (FLT4 (VEGFR3)) of 29 ± 7 nM and an IC50 (FLT3-ITD [1]) of 10 to 100 nM. For the same compound, the IC50 (FLT3-WT) was 10 to 100 nM, the CR ratio (MOLM-13 tumor xenograft; 5 mg/kg) was 67% and the tumor response (MOLM-13 tumor xenograft; 5 mg/kg i.v. qd, days 1–5 of each week for 3 weeks, tumors about 200 mm^3) was “complete regression of the tumor in all animals by day 22; also recorded: inhibited”. For the same compound, the “complete regression (CR), animals” value (MOLM-13 tumor xenograft; 5 mg/kg i.v. qd, days 1–5 weekly for 3 weeks, within 31 days of post-treatment observation) was 4 of 6, the “tumor response, large tumors” value (MOLM-13 tumor xenograft; 20 mg/kg i.v., days 1–5 of each week for 2 weeks, average tumor volume 630 mm^3, 48-day follow up) was “complete and durable tumor regression; also recorded: significantly reversed” and the “body weight, mortality, tolerability” value (MOLM-13 tumor xenograft; nude mice, 5 and 20 mg/kg/day i.v.) was “well-tolerated”. For the same compound, the IC50 (Aurora B kinase) was 1340 nM and the IC50 (FLT3-ITD [2]) was ~1 nM.
